Patent US20220389049A1, “REVERSIBLE TERMINATORS FOR DNA SEQUENCING AND METHODS OF USING THE SAME” (Centrillion Technologies, Inc., priority 2019, published 2022)

Experiments:
DNA polymerase ("CENT1") = assay: Enzymatic incorporation and cleavage studies: primer extension with compound 5 into a growing DNA chain (FIG. 2); assay type: biochemical
Source text: Enzymatic Incorporation and Cleavage Studies: (2R,3S,5R)-2-(((hydroxy((hydroxy(phosphonooxy)phosphoryl)oxy)phosphoryl)oxy)methyl)-5-(5-methyl-2,4-dioxo-3,4-dihydropyrimidin-1(2H)-yl)tetrahydrofuran-3-yl 3-azidopropanoate (5), a model compound, was synthesized similar to conditions of the relevant reactions disclosed in Scheme 1.

[1] = Chemical cleavage of the 3′O-blocking group of the free triphosphate by reducing reagent; assay type: physicochemical; conditions: heating with THPP or TCEP in 1×TE buffer at 55° C. for 5 min
Method: Cleavage of 3′O-[dithio-1-butynyl)-methyl)-thymidine triphosphate (15): The 3′O-bolcking group, alkyne dithioalkynemethyl ether from triphosphate 15 was cleaved by heating with 1, 4-dithiothreitol or (DTT) or tris(2-carboxyethyl) phosphine (TCEP) in 1×TE buffer (pH 9.5) at 55 degree Celsius for 5 min to afford thymidine triphosphate as shown in the Scheme 5.

growing DNA chain = assay: Enzymatic incorporation: primer extension with compound 15 into a growing DNA chain (FIG. 3); assay type: biochemical; conditions: FIG. 3 lanes 3, 4, 6 and 7

Cc1cn([C@H]2C[C@@H](OC(=O)CCN=[N+]=[N-])[C@@H](COP(=O)(O)OP(=O)(O)OP(=O)(O)O)O2)c(=O)[nH]c1=O [compound 5, 3′O-(3-azidopropionyl)-thymidine triphosphate]
blockage of further extension after incorporation of the terminator (DNA polymerase ("CENT1"); "runaway" reaction in the presence of all four unmodified dNTPs and a polymerase, FIG. 2 lane 4): blockage of further extension
cleavage of the label and the blocking group after incorporation (DNA polymerase ("CENT1"); FIG. 2 lane 5): cleavage of the label and the blocking group
further extension by the next base added after the cleavage (DNA polymerase ("CENT1"); FIG. 2 lane 6): further extension by the next base added
enzymatic incorporation (DNA polymerase ("CENT1"); in the presence of DNA polymerase ("CENT1"), FIG. 2 lane 3): can be used in enzymatic incorporation
cleavage of the 3′O-azidoalkanoate [1]: neatly cleaved

C#CCCCSSCO[C@@H]1C[C@H](n2cc(C)c(=O)[nH]c2=O)O[C@@H]1COP(=O)(O)OP(=O)(O)OP(=O)(O)O [compound 15]
enzymatic incorporation (growing DNA chain): excellent enzymatic incorporation
